How the values were obtained:
[1] = biological target: HDAC1 (Homo sapiens, UniProt Q13547); assay: Histone deacetylase activity, continuous trypsin-coupled assay; assay type: biochemical; details: trypsin-coupled fluorescence assay, acetyl-Gly-Ala-(N-acetyl-Lys)-AMC substrate
Procedure: (§1) HDAC activity is measured using a continuous trypsin-coupled assay that has been described in detail previously (US 20070281934; Schultz et. al., Biochemistry, 43 (34), 11083-11091, 2004; Kim et al. (2006), Methods Mol. Biol., 325:273-283). For inhibitor characterization, measurements are performed in a reaction volume of 100 µL using 96-well assay plates in a fluorescence plate reader. For each isozyme, the HDAC protein in reaction buffer (50 mM HEPES, 100 mM KCl, 0.001% Tween-20, 5% DMSO, pH 7.4, supplemented with bovine serum albumin at concentrations of 0-0.05%, is mixed with inhibitor at various concentrations and allowed to incubate for 15 minutes. Trypsin is added to a final concentration of 50 nM, and acetyl-Gly-Ala-(N-acetyl-Lys)-AMC is added to a final concentration of 25-100 μM to initiate the reaction. After a 30 minute lag time, the fluorescence is measured over a 30 minute time frame using an excitation wavelength of 355 nm and a detection wavelength of 460 nm. The increase in fluorescence with time is used as the measure of the reaction rate. Inhibition constants Ki(app) were obtained using the program BatchKi (Biokin, Pullman, Wash.).

[2] = biological target: T1, HDAC6 (Homo sapiens, UniProt Q9UBN7); assay: as above; assay type: biochemical; details: trypsin-coupled fluorescence assay, acetyl-Gly-Ala-(N-acetyl-Lys)-AMC substrate
T1 sequence (Q9UBN7 1-1215): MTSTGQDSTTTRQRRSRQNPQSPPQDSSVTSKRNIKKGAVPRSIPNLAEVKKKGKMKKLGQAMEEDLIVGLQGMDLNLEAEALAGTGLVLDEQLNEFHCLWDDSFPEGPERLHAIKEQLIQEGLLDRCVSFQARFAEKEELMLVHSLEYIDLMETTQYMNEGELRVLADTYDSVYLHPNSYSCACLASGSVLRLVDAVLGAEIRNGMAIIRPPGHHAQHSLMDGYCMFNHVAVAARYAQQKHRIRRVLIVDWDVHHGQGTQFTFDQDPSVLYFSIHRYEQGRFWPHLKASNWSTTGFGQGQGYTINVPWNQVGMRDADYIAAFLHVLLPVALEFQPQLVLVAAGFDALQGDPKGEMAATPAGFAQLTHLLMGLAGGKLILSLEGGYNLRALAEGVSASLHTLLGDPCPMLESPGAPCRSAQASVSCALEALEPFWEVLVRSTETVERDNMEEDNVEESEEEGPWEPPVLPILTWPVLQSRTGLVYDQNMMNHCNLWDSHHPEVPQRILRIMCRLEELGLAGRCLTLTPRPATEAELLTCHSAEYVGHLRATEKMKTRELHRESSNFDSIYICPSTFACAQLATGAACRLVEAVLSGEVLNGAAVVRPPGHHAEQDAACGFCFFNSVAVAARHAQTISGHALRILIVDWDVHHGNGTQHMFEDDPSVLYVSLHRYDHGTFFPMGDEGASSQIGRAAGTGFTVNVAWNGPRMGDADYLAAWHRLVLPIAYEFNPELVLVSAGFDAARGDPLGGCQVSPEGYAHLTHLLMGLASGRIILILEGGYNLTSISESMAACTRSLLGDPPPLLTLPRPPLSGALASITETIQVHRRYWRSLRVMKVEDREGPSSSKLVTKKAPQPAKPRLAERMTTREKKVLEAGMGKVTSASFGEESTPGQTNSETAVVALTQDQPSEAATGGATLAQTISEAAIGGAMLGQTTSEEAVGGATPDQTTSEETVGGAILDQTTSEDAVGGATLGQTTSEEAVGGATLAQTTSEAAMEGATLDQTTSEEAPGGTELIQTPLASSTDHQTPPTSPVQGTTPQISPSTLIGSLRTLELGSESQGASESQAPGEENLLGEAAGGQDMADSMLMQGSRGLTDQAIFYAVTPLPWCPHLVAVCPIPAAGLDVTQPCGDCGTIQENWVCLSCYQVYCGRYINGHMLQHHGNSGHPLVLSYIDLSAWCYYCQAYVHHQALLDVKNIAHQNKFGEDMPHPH
Procedure: as §1

[3] = biological target: T2, HDAC8 (Homo sapiens, UniProt Q9BY41); assay: as above; assay type: biochemical; details: trypsin-coupled fluorescence assay, acetyl-Gly-Ala-(N-acetyl-Lys)-AMC substrate
T2 sequence (Q9BY41 1-377): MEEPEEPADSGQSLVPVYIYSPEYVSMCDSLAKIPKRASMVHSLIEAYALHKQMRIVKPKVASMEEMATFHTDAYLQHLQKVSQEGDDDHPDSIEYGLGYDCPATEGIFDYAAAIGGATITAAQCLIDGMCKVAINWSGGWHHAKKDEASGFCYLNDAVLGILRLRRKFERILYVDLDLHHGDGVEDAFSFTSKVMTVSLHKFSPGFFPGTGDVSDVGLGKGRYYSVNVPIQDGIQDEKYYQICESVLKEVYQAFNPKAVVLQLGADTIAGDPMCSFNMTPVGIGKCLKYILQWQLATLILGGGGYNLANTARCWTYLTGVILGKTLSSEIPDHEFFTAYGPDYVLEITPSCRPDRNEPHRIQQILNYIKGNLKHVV
Procedure: as §1

[4] = system: Jurkat cells; assay: Cell proliferation assay, growth inhibition by Alamar Blue; assay type: cell-based; details: Homo sapiens, 72 h, treated with compound for 3 days
Procedure: Cell lines are obtained from DSMZ (Braunschweig, Germany) or ATCC (Manassas, Va.). Cells are grown in RPMI 1640 with 10% fetal bovine serum in a 5% CO2/air incubator at 37° C. Thapsigargin and BAPTA-AM are from Calbiochem (San Diego, Calif.). 3-((dimethylamino)methyl)-N-(2-(4-(hydroxycarbamoyl)phenoxy)ethyl)benzofuran-2-carboxamide is a broad-spectrum HDAC inhibitor which was synthesized as previously described. Other analogs with varying degrees of specificity towards the HDAC isoforms are synthesized as described herein.
Tumor cell lines and human umbilical vein endothelial cells (HUVEC) are cultured for at least two doubling times, and growth is monitored at the end of compound exposure using an Alamar Blue™ (Biosource, Camarillo, Calif.) fluorometric cell proliferation assay as recommended by the manufacturer. Compounds are assayed in triplicate wells in 96-well plates. The concentration required to inhibit cell growth by 50% (GI50) and 95% confidence intervals are estimated from nonlinear regression using a 4-parameter logistic equation. The effect of HDAC8 selective inhibitor compounds on cell proliferation in Jurkat cells is measured. Apoptosis is measured by Annexin-V flow cytommetry. Growth inhibiton iss measured by Alamar Blue assay. Cells are treated with compound for 3 days.

Sequence of HDAC1 (Q13547 whole entry): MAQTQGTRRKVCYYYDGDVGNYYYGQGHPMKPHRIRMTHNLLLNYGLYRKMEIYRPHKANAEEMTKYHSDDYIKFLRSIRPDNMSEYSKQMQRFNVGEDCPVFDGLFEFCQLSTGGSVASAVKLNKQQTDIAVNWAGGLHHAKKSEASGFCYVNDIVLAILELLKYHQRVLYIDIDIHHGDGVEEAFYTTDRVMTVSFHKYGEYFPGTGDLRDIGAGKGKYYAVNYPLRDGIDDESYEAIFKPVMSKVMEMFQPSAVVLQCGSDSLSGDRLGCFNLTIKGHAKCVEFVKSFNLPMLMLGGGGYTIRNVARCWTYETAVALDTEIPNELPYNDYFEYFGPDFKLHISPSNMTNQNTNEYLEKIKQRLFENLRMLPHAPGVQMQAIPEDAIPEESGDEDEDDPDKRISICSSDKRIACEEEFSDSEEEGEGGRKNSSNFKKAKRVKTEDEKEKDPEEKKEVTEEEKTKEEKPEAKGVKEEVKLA

| IC50 [1] [µM] | IC50 [2] [µM] | IC50 [3] [µM] | GI50 [4] [µM] | Structure (SMILES) |
| --- | --- | --- | --- | --- |
| 1 to 10 | 1 to 10 | ≤ 0.1 | 2 | O=C(/C=C/c1ccccc1Oc1ccc(F)cc1)NO [Compound 9, (E)-3-(2-(4-Fluorophenoxy)phenyl)-N-hydroxyacrylamide] |
| 1 to 10 | 0.1 to 1 | ≤ 0.1 | 1.98 | O=C(/C=C/c1ccccc1Oc1cccc(Cl)c1)NO [Compound 11, (E)-3-(2-(3-Chlorophenoxy)phenyl)-N-hydroxyacrylamide] |
| 1 to 10 | 1 to 10 | ≤ 0.1 | 9.7 | O=C(/C=C/c1ccccc1OC1CCN(C(=O)c2ccccc2)CC1)NO [Compound 20, (E)-3-(2-(1-benzoylpiperidin-4-yloxy)phenyl)-N-hydroxyacrylamide] |
| > 10 | 1 to 10 | ≤ 0.1 |  | O=C(/C=C/c1cc(NCc2cccnc2)ccc1Oc1ccc(F)cc1)NO [Compound 49, (E)-3-(2-(4-fluorophenoxy)-5-(pyridin-3-ylmethylamino)phenyl)-N-hydroxyacrylamide] |
| 1 to 10 | 0.1 to 1 | ≤ 0.1 | 2.25 | COc1ccc(Oc2ccccc2/C=C/C(=O)NO)cc1 [Compound 10, (E)-N-hydroxy-3-(2-(4-methoxyphenoxy)phenyl)acrylamide] |
| 1 to 10 | 0.1 to 1 | ≤ 0.1 |  | O=C(/C=C/c1ccccc1Oc1ccccc1)NO [Compound 7, (E)-N-Hydroxy-3-(2-phenoxyphenyl)acrylamide] |
| 1 to 10 | 0.1 to 1 | ≤ 0.1 |  | CN1CCN(CCOc2ccc(/C=C/C(=O)NO)c(Oc3cccc(Cl)c3)c2)CC1 [Compound 68, (E)-3-(2-(3-chlorophenoxy)-4-(2-(4-methylpiperazin-1-yl)ethoxy)phenyl)-N-hydroxyacrylamide] |
| 0.1 to 1 | 0.1 to 1 | ≤ 0.1 |  | CN(C)CCOc1ccc(/C=C/C(=O)NO)c(Oc2cccc(Cl)c2)c1 [Compound 69, (E)-3-(2-(3-chlorophenoxy)-4-(2-(dimethylamino)ethoxy)phenyl)-N-hydroxyacrylamide] |
| 1 to 10 | 1 to 10 | ≤ 0.1 | 1.8 | O=C(/C=C/c1ccccc1Oc1ccc(Cl)c(Cl)c1)NO [Compound 12, (E)-3-(2-(3,4-Dichlorophenoxy)phenyl)-N-hydroxyacrylamide] |
| 1 to 10 | 0.1 to 1 | ≤ 0.1 |  | O=C(/C=C/c1ccc(OCc2cccnc2)cc1Oc1cccc(Cl)c1)NO [Compound 59, (E)-3-(2-(3-chlorophenoxy)-4-(pyridin-3-ylmethoxy)phenyl)-N-hydroxyacrylamide] |
| > 10 | 1 to 10 | ≤ 0.1 |  | COCCOc1ccc(/C=C/C(=O)NO)c(Oc2ccc(Cl)c(Cl)c2)c1 [Compound 80, (E)-3-(2-(3,4-dichlorophenoxy)-4-(2-methoxyethoxy)phenyl)-N-hydroxyacrylamide] |
| 1 to 10 | 0.1 to 1 | ≤ 0.1 | 6.1 | Cc1ccc(Oc2ccccc2/C=C/C(=O)NO)cc1 [Compound 8, (E)-3-(2-(p-Tolyloxy)phenyl)-N-hydroxyacrylamide] |
| 1 to 10 | 1 to 10 | ≤ 0.1 | 2.5 | Cc1cccc(Oc2ccccc2/C=C/C(=O)NO)c1 [Compound 13, (E)-N-hydroxy-3-(2-(m-tolyloxy)phenyl)acrylamide] |
| > 10 | > 10 | ≤ 0.1 |  | CC(=O)Nc1ccc(Oc2cccc(Cl)c2)c(/C=C/C(=O)NO)c1 [Compound 42, (E)-3-(5-acetamido-2-(3-chlorophenoxy)phenyl)-N-hydroxyacrylamide] |
| 1 to 10 | 1 to 10 | ≤ 0.1 | 3.58 | O=C(/C=C/c1ccccc1Oc1cccc(F)c1)NO [Compound 14, (E)-3-(2-(3-Fluorophenoxy)phenyl)-N-hydroxyacrylamide] |
| > 10 | > 10 | ≤ 0.1 |  | O=C(/C=C/c1ccccc1Oc1ccncc1)NO [Compound 17, (E)-N-Hydroxy-3-(2-(pyridin-4-yloxy)phenyl)acrylamide] |
| 1 to 10 | 1 to 10 | ≤ 0.1 | > 20 | O=C(/C=C/c1ccccc1Oc1cccnc1)NO [Compound 16, (E)-N-Hydroxy-3-(2-(pyridin-3-yloxy)phenyl)acrylamide] |
| 1 to 10 | 0.1 to 1 | ≤ 0.1 |  | O=C(/C=C/c1ccc(OCCN2CCOCC2)cc1Oc1cccc(Cl)c1)NO [Compound 67, (E)-3-(2-(3-chlorophenoxy)-4-(2-morpholinoethoxy)phenyl)-N-hydroxyacrylamide] |
| 1 to 10 | 1 to 10 | ≤ 0.1 | 1.43 | O=C(/C=C/c1ccccc1Oc1ccc(Cl)cc1)NO [Compound 6, (E)-3-(2-(4-chlorophenoxy)phenyl)-N-hydroxyacrylamide] |
| 1 to 10 | 0.1 to 1 | ≤ 0.1 | 3.37 | COc1cccc(Oc2ccccc2/C=C/C(=O)NO)c1 [Compound 15, (E)-N-hydroxy-3-(2-(3-methoxyphenoxy)phenyl)acrylamide] |

Reference: US20150045367A1, “CINNAMIC ACID HYDROXYAMIDES AS INHIBITORS OF HISTONE DEACETYLASE 8” (PHARMACYCLICS, INC., priority 2011, published 2015)
